According to ChEMBL document CHEMBL1155023, “C-geranylated chalcones from the stems of Angelica keiskei with superoxide-scavenging activity” (J Nat Prod, 2008):

Assay: Superoxide-scavenging activity assessed as inhibition of formation of WST1 formazan

SMILES | IC50
C=C(C)C(O)CCC(C)(O)[C@H]1Oc2ccc(C(=O)/C=C/c3ccc(O)cc3)c(O)c2[C@@H]1O (relative stereo) [XANTHOKEISMINS C] | 1100 nM
CC(C)(O)/C=C/CC(C)(O)[C@H]1Oc2ccc(C(=O)/C=C/c3ccc(O)cc3)c(O)c2[C@@H]1O (some centres undefined) [XANTHOKEISMINS B] | 690 nM
C/C(=C\Cc1c(O)ccc(C(=O)/C=C/c2ccc(O)cc2)c1O)C/C=C/C(C)(C)O [XANTHOKEISMINS A] | 510 nM
O=C(/C=C/c1ccc(O)cc1)c1ccc(O)cc1O [ISOLIQUIRITIGENIN] | 15000 nM
C=C(C)C(O)CC/C(C)=C/Cc1c(O)ccc(C(=O)/C=C/c2ccc(O)cc2)c1O (centres undefined) [XANTHOANGELOL B] | 920 nM
CC(C)=CCC/C(C)=C/CC/C(C)=C/CO [FARNESOL] | > 40000 nM
Oc1ccc(/C=C/c2cc(O)cc(O)c2)cc1 [RESVERATROL] | 5300 nM
O=C1O[C@H]([C@@H](O)CO)C(O)=C1O [ASCORBIC ACID] | > 40000 nM
CC(C)=CCC/C(C)=C/Cc1c(O)ccc(C(=O)/C=C/c2ccc(O)cc2)c1O [XANTHOANGELOL] | > 40000 nM
